Experimental data published in patent US20250302746A1, “METHOD FOR PRODUCING EMULSIFIED COMPOSITION” (Daicel Corporation, priority 2022, published 2025).

Assays:
[1] = Test Example 4: transmittance of emulsified composition (660 nm, optical path 10 mm); format: physicochemical; settings: balance glycerol, heated 120° C. 3 min, 15000 rpm
Description: (§1) The transmittance of the emulsified composition produced in this example was determined as a transmittance for light having a wave length of 660 nm at a measurement optical path length of 10 mm using an ultraviolet-visible spectrophotometer UV-1800 (manufactured by Shimadzu Corporation). In the following test, a case where the transmittance was less than 40% was indicated by “C”, a case where the transmittance was 40% or greater and less than 80% was indicated by “B”, and a case where the transmittance was 80% or greater was indicated by “A”.
(§2) A solution having a composition of parts by weight shown in Table 4 (a solution in which the balance is glycerol and the total is 100 parts by weight) was prepared and heated at 120° C. for 3 minutes using a block heater. During being heated, the solution was mixed using a polytron homogenizer at 15000 rpm. Thereafter, the solution was allowed to stand at room temperature (about 25° C.) and the temperature of the solution was lowered to room temperature (about 25° C.) to produce an emulsified composition, and the transmittance was measured.

[2] = cited from earlier work
[3] = Test Example 3: transmittance of emulsified composition (660 nm, optical path 10 mm); format: physicochemical; settings: balance glycerol, 15000 rpm
Description: as §1
as §2, with “3” for “4”, “a heating temperature shown in Table 3” for “120° C.”

[4] = Test Example 2: transmittance of emulsified composition (660 nm, optical path 10 mm); format: physicochemical; settings: balance glycerol, heated 120° C. 3 min, 15000 rpm
Description: as §1
as §2, with “2” for “4”

[5] = Test Example 1: transmittance of emulsified composition (660 nm, optical path 10 mm); format: physicochemical; settings: balance glycerol, 10000 rpm
Description: as §1
as §2, with “1” for “4”, “a heating temperature shown in Table 1” for “120° C.”, “10000” for “15000”

[6] = urolithin 0.5, RYOTO polyglyester L-7D (HLB 17.0) 50 parts by weight
[7] = Urolithin A 0.1, Decaglyn 1-LF (HLB 15.5) 5 parts by weight, heated 100° C. 3 min
[8] = Urolithin A 0.1, Decaglyn 1-LF (HLB 15.5) 5 parts by weight, heated 120° C. 3 min
[9] = Urolithin A 0.1, RYOTO polyglyester L-7D (HLB 17.0) 5 parts by weight, heated 100° C. 3 min
[10] = Urolithin A 0.1, RYOTO polyglyester L-7D (HLB 17.0) 5 parts by weight, heated 120° C. 3 min
[11] = urolithin 0.1, RYOTO polyglyester L-7D (HLB 17.0) 50 parts by weight

O=c1oc2cc(O)ccc2c2cc(O)ccc12 [Isourolithin A, isourolithin A]
Transmittance results [1, 6]: B (the transmittance was 40% or greater and less than 80%)

O=c1oc2cc(O)ccc2c2ccc(O)cc12 [Urolithin A, urolithin A]
oil solubility ([2]; background statement): low
solubility in high-temperature vegetable oil or the like ([2]; background statement): not soluble
solubility in water ([2]; water at 30° C. (Patent Document 4)): about 3.5 mg/L
Transmittance results [3, 7]: C (the transmittance was less than 40%)
Transmittance results ([3]; Urolithin A 0.1, Decaglyn 1-LF (HLB 15.5) 5 parts by weight, heated 105° C. 3 min): C (the transmittance was less than 40%)
Transmittance results [3, 8]: B (the transmittance was 40% or greater and less than 80%)
Transmittance results ([3]; Urolithin A 0.1, Decaglyn 1-LF (HLB 15.5) 50 parts by weight, heated 100° C. 3 min): C (the transmittance was less than 40%)
Transmittance results ([3]; Urolithin A 0.1, Decaglyn 1-LF (HLB 15.5) 50 parts by weight, heated 105° C. 3 min): A (the transmittance was 80% or greater)
Transmittance results ([3]; Urolithin A 0.1, Decaglyn 1-LF (HLB 15.5) 50 parts by weight, heated 120° C. 3 min): A (the transmittance was 80% or greater)
Transmittance results [3, 9]: C (the transmittance was less than 40%)
Transmittance results ([3]; Urolithin A 0.1, RYOTO polyglyester L-7D (HLB 17.0) 5 parts by weight, heated 105° C. 3 min): C (the transmittance was less than 40%)
Transmittance results [3, 10]: A (the transmittance was 80% or greater)
Transmittance results ([3]; Urolithin A 0.1, RYOTO polyglyester L-7D (HLB 17.0) 50 parts by weight, heated 100° C. 3 min): C (the transmittance was less than 40%)
Transmittance results ([3]; Urolithin A 0.1, RYOTO polyglyester L-7D (HLB 17.0) 50 parts by weight, heated 105° C. 3 min): A (the transmittance was 80% or greater)
Transmittance results ([3]; Urolithin A 0.1, RYOTO polyglyester L-7D (HLB 17.0) 50 parts by weight, heated 120° C. 3 min): A (the transmittance was 80% or greater)
Transmittance results ([4]; Urolithin A 0.2, Decaglyn 1-LF (HLB 15.5) 5 parts by weight): C (the transmittance was less than 40%)
Transmittance results ([4]; Urolithin A 0.2, Decaglyn 1-LF (HLB 15.5) 10 parts by weight): B (the transmittance was 40% or greater and less than 80%)
Transmittance results ([4]; Urolithin A 0.2, Decaglyn 1-LF (HLB 15.5) 50 parts by weight): A (the transmittance was 80% or greater)
Transmittance results ([4]; Urolithin A 0.2, RYOTO polyglyester L-7D (HLB 17.0) 5 parts by weight): C (the transmittance was less than 40%)
Transmittance results ([4]; Urolithin A 0.2, RYOTO polyglyester L-7D (HLB 17.0) 10 parts by weight): B (the transmittance was 40% or greater and less than 80%)
Transmittance results ([4]; Urolithin A 0.2, RYOTO polyglyester L-7D (HLB 17.0) 50 parts by weight): A (the transmittance was 80% or greater)
Transmittance results ([4]; Urolithin A 0.5, RYOTO polyglyester L-7D (HLB 17.0) 50 parts by weight): A (the transmittance was 80% or greater)
Transmittance results ([5]; Urolithin A 0.1, Decaglyn 1-LF (HLB 15.5) 5 parts by weight, heated 80° C. 3 min): C (the transmittance was less than 40%)
Transmittance results [5, 7]: C (the transmittance was less than 40%)
Transmittance results [5, 8]: B (the transmittance was 40% or greater and less than 80%)
Transmittance results ([5]; Urolithin A 0.1, Decaglyn 1-MF (HLB 14.0) 5 parts by weight, heated 80° C. 3 min): C (the transmittance was less than 40%)
Transmittance results ([5]; Urolithin A 0.1, Decaglyn 1-MF (HLB 14.0) 5 parts by weight, heated 100° C. 3 min): C (the transmittance was less than 40%)
Transmittance results ([5]; Urolithin A 0.1, Decaglyn 1-MF (HLB 14.0) 5 parts by weight, heated 120° C. 3 min): B (the transmittance was 40% or greater and less than 80%)
Transmittance results ([5]; Urolithin A 0.1, Decaglyn 1-OVF (HLB 12.0) 5 parts by weight, heated 80° C. 3 min): C (the transmittance was less than 40%)
Transmittance results ([5]; Urolithin A 0.1, Decaglyn 1-OVF (HLB 12.0) 5 parts by weight, heated 100° C. 3 min): C (the transmittance was less than 40%)
Transmittance results ([5]; Urolithin A 0.1, Decaglyn 1-OVF (HLB 12.0) 5 parts by weight, heated 120° C. 3 min): B (the transmittance was 40% or greater and less than 80%)
Transmittance results ([5]; Urolithin A 0.1, RYOTO polyglyester L-7D (HLB 17.0) 5 parts by weight, heated 80° C. 3 min): C (the transmittance was less than 40%)
Transmittance results [5, 9]: C (the transmittance was less than 40%)
Transmittance results [5, 10]: A (the transmittance was 80% or greater)
Transmittance results ([5]; Urolithin A 0.1, RYOTO polyglyester O-15D (HLB 13.0) 5 parts by weight, heated 80° C. 3 min): C (the transmittance was less than 40%)
Transmittance results ([5]; Urolithin A 0.1, RYOTO polyglyester O-15D (HLB 13.0) 5 parts by weight, heated 100° C. 3 min): C (the transmittance was less than 40%)
Transmittance results ([5]; Urolithin A 0.1, RYOTO polyglyester O-15D (HLB 13.0) 5 parts by weight, heated 120° C. 3 min): B (the transmittance was 40% or greater and less than 80%)
Transmittance results ([5]; Urolithin A 0.1, RYOTO polyglyester O-50D (HLB 7) 5 parts by weight, heated 80° C. 3 min): C (the transmittance was less than 40%)
Transmittance results ([5]; Urolithin A 0.1, RYOTO polyglyester O-50D (HLB 7) 5 parts by weight, heated 100° C. 3 min): C (the transmittance was less than 40%)
Transmittance results ([5]; Urolithin A 0.1, RYOTO polyglyester O-50D (HLB 7) 5 parts by weight, heated 120° C. 3 min): C (the transmittance was less than 40%)
Transmittance results ([5]; Urolithin A 0.1, Sugar ester S-1170 (HLB about 11) 5 parts by weight, heated 80° C. 3 min): C (the transmittance was less than 40%)
Transmittance results ([5]; Urolithin A 0.1, Sugar ester S-1170 (HLB about 11) 5 parts by weight, heated 100° C. 3 min): C (the transmittance was less than 40%)
Transmittance results ([5]; Urolithin A 0.1, Sugar ester S-1170 (HLB about 11) 5 parts by weight, heated 120° C. 3 min): C (the transmittance was less than 40%)

O=c1oc2cc(O)ccc2c2ccccc12 [Urolithin B, urolithin B]
Transmittance results ([1]; urolithin 1.0, RYOTO polyglyester L-7D (HLB 17.0) 50 parts by weight): A (the transmittance was 80% or greater)

O=c1oc2cc(O)ccc2c2cc(O)c(O)cc12 [Urolithin C, urolithin C]
Transmittance results [1, 11]: A (the transmittance was 80% or greater)

O=c1oc2c(O)c(O)ccc2c2c(O)c(O)c(O)cc12 [Urolithin M5, urolithin M5]
Transmittance results [1, 11]: A (the transmittance was 80% or greater)

O=c1oc2cc(O)ccc2c2c(O)c(O)c(O)cc12 [Urolithin M6, urolithin M6]
Transmittance results [1, 6]: A (the transmittance was 80% or greater)

O=c1oc2cc(O)ccc2c2c(O)cc(O)cc12 [Urolithin M7, urolithin M7]
Transmittance results [1, 11]: A (the transmittance was 80% or greater)

urolithin M8
Transmittance results [1, 6]: A (the transmittance was 80% or greater)
